The values below come from US8143221B2, “Use of ADNF polypeptides for treating peripheral neurotoxicity” (Ramot at Tel-Aviv University, priority 2005, dated 2012).

Ends that are not written are not given here.

The subject of data set [1] is peripheral neurotoxicity under chemotherapy including L-OHP, FA/5-FU. The data set is described as follows: Randomized trial with or without NAP under chemotherapy with oxaliplatin (L-OHP), FA/5-FU. The data set is classed as in vivo. Conditions: patients with ACRC, NAP 15 mg/45-70 kg i.v. before L-OHP, vs control group. The procedure: Aim of the study: Chemotherapy with L-OHP, FA, 5-FU has a high activity in advanced colorectal cancer (ACRC). The main dose-limiting toxicity of chemotherapy with L-OHP is a peripheral sensory neuropathy. In this study the patients (pts) will receive a chemotherapy with L-OHP, FA and 5-FU with or without NAP. The question is whether a reduction of side effects of neurotoxicity is seen after application of NAP.
We include 27 patients with ACRC. In arm A chemotherapy is applied with L-OHP 85 mg/m2 d1, FA 500 mg/m2 d1+d2 and 5-FU 4000 mg/m2 over 48 h continuous infusion as biweekly schedule. In arm B, 15 mg/45-70 kg NAP is given over 10 min i.v. before application of the same schedule of chemotherapy. Investigation of toxicity, neurological examination and a blood count is performed before every cycle. For a daily documentation of the side effects every patient receives a questionnaire.

The test system of data set [2] is peripheral neurotoxicity induced by the taxane taxol. The data set is described as follows: Plantar test (thermal hyperalgesia) in taxol-treated rats.
Protocol: (§3) Forty Sprague-Dawley rats (eight weeks old) were divided into four groups that received the following treatments: a) 10% Cremophor EL in Saline; b) taxol for a cumulative dose of 5.6 mg/kg; c) taxol for a cumulative dose of 5.6 mg/kg+NAP 2.5 μg/kg/Day; or d) taxol for a cumulative dose of 5.6 mg/kg+NAP 25 μg/kg/Day. The taxol was reconstituted in a vehicle of 10% Cremophor EL in Saline.
(§4) Taxol treatments were administered four times intraperitoneally (i.p.) on nonconsecutive days in a volume of 250 μl each time. NAP was administered daily on 8 consecutive days from the first day of taxol injection (with a 2 day brake on the weekend).
Rats were tested in the rota-rod and plantar test. […] The plantar test evaluates thermal hyperalgesia. For the plantar test, each rat was placed in a clear plastic chamber with a plastic floor and allowed a short period to acclimatize to the new environment (approximately 2-5 min). The animals were then challenged with a radiant Infrared (IR) heat source directed at the plantar surface of the hind paw from below (7371 Plantar Test, Ugo Basile). The withdrawal latency of both the ipsilateral and contralateral hind paw was evaluated. The infrared intensity was set at IR55 and the maximum length of exposure to the IR source was eighteen seconds. Statistical differences were tested by ANOVA and by t-test. […]
For data set [3] the test system is unchanged. Description: Rota-rod test in taxol-treated rats. To be noted: Experiment 2: rats, taxol cumulative 9 mg/kg i.p.; five days after the first taxol injection.
Protocol: In the Rota-rod test a rodent is placed on a rotating rod. […] The time spent on the rota-rod without falling was recorded. Impaired animals fall earlier from the rota-rod.
as §3, §4
Rats were tested in the rota-rod and plantar test. The rota-rod test is described above and assesses muscle strength. […] Statistical differences were tested by ANOVA and by t-test.
Fifteen Sprague-Dawley Rats (seven weeks old) were randomly divided into three groups that received the following treatments: a) 10% Cremophor EL in Saline; b) taxol for a cumulative dose of 9 mg/kg; or c) taxol for a cumulative dose of 9 mg/kg+2.5 μg/kg/Day NAP. The taxol was reconstituted in a vehicle of 10% Cremophor EL in Saline. […]
In data set [4] the test system is peripheral neurotoxicity induced by the vinca alkaloid vincristine. The data set is described as follows: Motor evaluation: ability to exit a circle 30 cm in diameter within 20 seconds, vincristine-treated rats. Conditions: vincristine 0.175 mg/kg i.p. alone vs control. The data set is classed as in vivo. The procedure: (§1) Rats (200-300 g), divided into 4 groups of 10, were injected with vincristine sulfate dissolved in saline. Stock concentration was 2 mg/ml, pH 4.5-5.2. Aliquots of the drug were diluted daily in saline to concentrations of 0.175 mg/ml and were administered i.p. at a dose of 0.175 mg/kg. NAP was prepared at 0.1 mg/1.3 ml in saline (0.9% NaCl) and about 0.1 ml was injected subcutaneously to a ˜300 g rat to achieve a dose of 25 microgram/kg (exact calculations were made based on the daily body weights). For 2.5 microgram/kg, the injection solution was diluted by 10 and again 0.1 ml was injected per rat. Treatments took place daily (5 days a week) for ˜3 weeks (20 days) with the dosage calculated on daily body weight. NAP was administered at the same time as the vincristine, in the dosage and the amount where indicated the following schedule.
(§2) Four groups were evaluated: 1) Control, saline (n=10), 2) Vincristine (i.p.) 0.175 mg/kg (n=10), 3) Vincristine (i.p.) 0.175 mg/kg+NAP (s.c.) 2.5 microgram/kg (n=10), and 4) Vincristine (i.p.) 0.175 mg/kg+NAP (s.c.) 25 microgram/kg (n=10).
Motor examination was performed on days 6, 9, 13 and 24 after the initiation of the vincristine injections. Rats were examined after vincristine injection, with the use of a motor disability scale. […]
Animals were assessed based on their failure to walk out of a circle 30 cm in diameter within 20 seconds.

For data set [5] the test system is unchanged. Description: Rota-rod test in vincristine-treated rats. The data set is classed as in vivo. Conditions: vincristine 0.175 mg/kg i.p. alone vs saline control, P<0.01. As to the method:
as §1, §2
After a week cessation of treatment, a final boost of vincristine was given i.p. daily for three days and NAP at 25 microgram/kg was given intranasally to group number 4 only. […] For behavioral testing baseline toxin effects were evaluated 2-23 days following the first injection, using the testing procedures below: […]

For data set [6] the test system is unchanged. The data set is described as follows: Olfactory discrimination test in vincristine-treated rats. The data set is classed as in vivo. To be noted: vincristine alone (group 2). As to the method:
Treatments took place daily (5 days a week) for ˜3 weeks (20 days) with the dosage calculated on daily body weight. NAP was administered subcutaneously at the same time as the vincristine was administered intraperitoneally, in the dosage and the amount indicated in the schedule above. After a week cessation of treatment a final boost of vincristine was given i.p. daily for three days and NAP at 25 microgram/kg was given intranasally to group number 4 only. The intranasal formulation followed the previous experiment (Alcalay et al., infra). An olfactory discrimination test was performed on each of the three days of NAP treatment during the final boost period. (Macknin et al., Brain Res. 1000, 174-78 (2004)) The odors tested were 1) Deionized water (ddw) and 2) Scented extracts, i.e., vanilla/almond.
Overall the experiment included 3 odors (water and two scented extracts) each encompassing 3 trials of 2 minutes. New dipped tip was introduced at the beginning of each trial for the different scents.
Thirty minutes before the testing the subjects were housed in separate cages and a cotton tip dipped in water was placed hanging into the cage. During these 30 minutes the animal was acclimatized to the tip and the cage. Thereafter, the cotton tip was dipped in the desired scent and placed hanging from the top of the cage. […]

The subject of another data set is tubulin. Conditions: cited from earlier work.
For data set [7], the system named is neurons of the central nervous system. To be noted: in-vitro assays and in vivo disease models; cited from earlier work.

On to `CC[C@H](C)[C@H](NC(=O)[C@H](CO)NC(=O)[C@@H](NC(=O)[C@@H]1CCCN1C(=O)[C@H](C)NC(=O)[C@@H](N)CC(N)=O)C(C)C)C(=O)N1CCC[C@H]1C(=O)N[C@@H](CCC(N)=O)C(=O)O` [NAP, Asn-Ala-Pro-Val-Ser-Ile-Pro-Gln], for which the “Frequency of grade II/III leucopenia” value in data set [1] was “occurs at a lower frequency than in the control group”.
Turning to `CC(=O)O[C@H]1C(=O)[C@@]2(C)[C@H]([C@H](OC(=O)c3ccccc3)[C@]3(O)C[C@H](OC(=O)[C@H](O)[C@@H](NC(=O)c4ccccc4)c4ccccc4)C(C)=C1C3(C)C)[C@]1(OC(C)=O)CO[C@@H]1C[C@@H]2O` [taxol], the “Plantar test: thermal hyperalgesia, toxin alone” value is “exhibited thermal hyperalgesia” in data set [2] (Experiment 1: rats, taxol cumulative 5.6 mg/kg i.p., after the last taxol injection on day three) and “exhibited a significant thermal hyperalgesia” in data set [2] (Experiment 2: rats, taxol cumulative 9 mg/kg i.p., eight days after the last Taxol injection). Also, in data set [3], the “Rota-rod test: neuromuscular function, toxin alone” value is recorded as “a significant effect on neuromuscular function”.
Consider `CC[C@]1(O)C[C@H]2CN(CCc3c([nH]c4ccccc34)[C@@](C(=O)OC)(c3cc4c(cc3OC)N(C=O)[C@H]3[C@@](O)(C(=O)OC)[C@H](OC(C)=O)[C@]5(CC)C=CCN6CC[C@]43[C@@H]65)C2)C1` [vincristine], for which the “Ability to exit a circle 30 cm in diameter within 20 seconds, toxin alone vs control” value is “significantly reduced” in data set [4] (P<0.001) and “significantly worse as compared to control animals” in data set [4] (P<0.001, listed as Vincristine). Further, the “Rota-rod performance, toxin alone vs control” value in data set [5] was “significant difference between the vincristine treated animals and the control animals indicating impairment”. In addition, the “Time spent with new odors: olfaction capacity, toxin alone” value in data set [6] is “did not show any initial interest in the new smell”.
Consider SALLRSIPA, for which the Interaction with tubulin result in the data set with tubulin is on record as “interact with tubulin”. For the same molecule, the “Neuron survival in response to various insults” value in data set [7] is listed as “keep neurons of the central nervous system alive”.

B1: ADNP: full length ADNF III, activity-dependent neuroprotective protein (protein, UniProt Q9H2P0 1-1102, looked up)
chain: MFQLPVNNLGSLRKARKTVKKILSDIGLEYCKEHIEDFKQFEPNDFYLKNTTWEDVGLWDPSLTKNQDYRTKPFCCSACPFSSKFFSAYKSHFRNVHSEDFENRILLNCPYCTFNADKKTLETHIKIFHAPNASAPSSSLSTFKDKNKNDGLKPKQADSVEQAVYYCKKCTYRDPLYEIVRKHIYREHFQHVAAPYIAKAGEKSLNGAVPLGSNAREESSIHCKRCLFMPKSYEALVQHVIEDHERIGYQVTAMIGHTNVVVPRSKPLMLIAPKPQDKKSMGLPPRIGSLASGNVRSLPSQQMVNRLSIPKPNLNSTGVNMMSSVHLQQNNYGVKSVGQGYSVGQSMRLGLGGNAPVSIPQQSQSVKQLLPSGNGRSYGLGSEQRSQAPARYSLQSANASSLSSGQLKSPSLSQSQASRVLGQSSSKPAAAATGPPPGNTSSTQKWKICTICNELFPENVYSVHFEKEHKAEKVPAVANYIMKIHNFTSKCLYCNRYLPTDTLLNHMLIHGLSCPYCRSTFNDVEKMAAHMRMVHIDEEMGPKTDSTLSFDLTLQQGSHTNIHLLVTTYNLRDAPAESVAYHAQNNPPVPPKPQPKVQEKADIPVKSSPQAAVPYKKDVGKTLCPLCFSILKGPISDALAHHLRERHQVIQTVHPVEKKLTYKCIHCLGVYTSNMTASTITLHLVHCRGVGKTQNGQDKTNAPSRLNQSPSLAPVKRTYEQMEFPLLKKRKLDDDSDSPSFFEEKPEEPVVLALDPKGHEDDSYEARKSFLTKYFNKQPYPTRREIEKLAASLWLWKSDIASHFSNKRKKCVRDCEKYKPGVLLGFNMKELNKVKHEMDFDAEWLFENHDEKDSRVNASKTADKKLNLGKEDDSSSDSFENLEEESNESGSPFDPVFEVEPKISNDNPEEHVLKVIPEDASESEEKLDQKEDGSKYETIHLTEEPTKLMHNASDSEVDQDDVVEWKDGASPSESGPGSQQVSDFEDNTCEMKPGTWSDESSQSEDARSSKPAAKKKATMQGDREQLKWKNSSYGKVEGFWSKDQSQWKNASENDERLSNPQIEWQNSTIDSEDGEQFDNMTDGVAEPMHGSLAGVKLSSQQA
modifications: full-length
B1: the Interaction with tubulin entry in the data set on tubulin is on record as “interact with tubulin”.
